Laboratory results reported in patent publication US20260007681A1, “INDOLE DERIVATIVES AS ESTROGEN RECEPTOR DEGRADERS” (REGENTS OF THE UNIVERSITY OF MICHIGAN, priority 2022, published 2026).
Read-outs that look alike come from different tables or passages of the source.

Tests used:
CRBN/DDB1 = CRBN/DDB1 (Homo sapiens (Human), UniProt Q96SW2); assay type: binding; details: His tagged CRBN+DDB-DLS7+CXU4, Cy5-labeled Thalidomide probe, one hour incubation; read-out: CRBN HTRF IC50
Method: The binding potency was determined using H-TRF assay technology (Perkin Elmer). Compounds were serially diluted in DMSO and 0.2 μL volume was transferred to white 384-well plate.

ER in MCF-7 cells = ER in MCF-7 cells (Homo sapiens (Human), UniProt P03372); assay: In-cell western (ICW) ER degradation assay in MCF-7 cells (Compounds A1-A70); assay type: cell-based; details: MCF-7 cells, 16 hrs treatment; for DC50: ER degradation, 0.02 to 300 nM, read-out: MCF7 ICW DC50; for Dmax: MCF7, maximal ER degradation, read-out: MCF7 ICW Dmax (%)
Method: (§1) ERa degradative activity of compounds can be assessed in MCF-7 and T47D Cells. MCF-7 and T47D cell are seeded and are subsequently treated with the compounds at certain concentrations (e.g., 0.02 to 300 nM). DMSO can be used as vehicle control. Cells are fixed and are blocked with Intercept (PBS) Blocking Buffer (e.g., Li—COR, Odyssey Blocking Buffer), and are stained with ER (e.g., 1:500, Cell signaling) primary antibody for overnight at cold room. Secondary Antibody (e.g., IRDye 800CW Goat anti-Rabbit IgG) and CellTag 700 Stain are added in Intercept (PBS) Blocking Buffer. Finally, cell plate is placed in incubator to dry. Image and signal are captured on Odyssey® DLx Imaging System.
(§2) Day 3: After 16 hrs of compounds treatment, cells were fixed by 4% PFA and permeabilized with elution buffer (0.1% Triton X-100 in 1% PBS Solution). Subsequently, cells were blocked with Intercept (PBS) Blocking Buffer (Li—COR, Odyssey Blocking Buffer), and were stained with ER (1:500, Cell signaling) primary antibody for overnight at cold room.
(§3) Day 4: Remove the buffer, add IRDye 800CW Goat anti-Rabbit IgG Secondary Antibody (1:2000) and CellTag 700 Stain (1:500) in Intercept (PBS) Blocking Buffer. Finally, cell plate is placed in incubator to dry. Image and signal were captured on Odyssey® DLx Imaging System.

ER in T47D cells = ER in T47D cells (Homo sapiens (Human), UniProt P03372); assay: In-cell western (ICW) ER degradation assay in T47D cells (Compounds A1-A70); assay type: cell-based; details: T47D cells, 16 hrs treatment; for DC50: ER degradation, 0.02 to 300 nM; for Dmax: maximal ER degradation, read-out: T47D ICW Dmax (%)
Method: as §1, §2, §3

Chain of ER in T47D cells (P03372 whole entry): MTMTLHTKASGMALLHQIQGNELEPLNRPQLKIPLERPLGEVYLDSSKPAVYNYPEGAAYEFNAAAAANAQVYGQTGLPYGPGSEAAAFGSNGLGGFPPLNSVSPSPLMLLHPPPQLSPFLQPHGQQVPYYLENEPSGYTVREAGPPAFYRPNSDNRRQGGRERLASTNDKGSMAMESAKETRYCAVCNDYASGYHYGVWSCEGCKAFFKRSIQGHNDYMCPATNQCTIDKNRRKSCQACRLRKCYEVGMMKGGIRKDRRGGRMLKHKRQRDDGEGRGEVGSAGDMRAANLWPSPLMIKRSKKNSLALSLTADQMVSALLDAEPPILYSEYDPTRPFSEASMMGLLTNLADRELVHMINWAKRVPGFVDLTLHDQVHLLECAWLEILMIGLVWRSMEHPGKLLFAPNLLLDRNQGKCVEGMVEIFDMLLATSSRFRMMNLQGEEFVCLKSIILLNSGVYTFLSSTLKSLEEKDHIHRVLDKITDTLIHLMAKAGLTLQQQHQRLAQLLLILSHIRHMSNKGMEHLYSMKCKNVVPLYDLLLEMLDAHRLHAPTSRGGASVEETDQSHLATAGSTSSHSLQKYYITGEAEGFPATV
Chain of ER in MCF-7 cells (P03372 whole entry): as above
Chain of CRBN/DDB1 (Q96SW2 whole entry): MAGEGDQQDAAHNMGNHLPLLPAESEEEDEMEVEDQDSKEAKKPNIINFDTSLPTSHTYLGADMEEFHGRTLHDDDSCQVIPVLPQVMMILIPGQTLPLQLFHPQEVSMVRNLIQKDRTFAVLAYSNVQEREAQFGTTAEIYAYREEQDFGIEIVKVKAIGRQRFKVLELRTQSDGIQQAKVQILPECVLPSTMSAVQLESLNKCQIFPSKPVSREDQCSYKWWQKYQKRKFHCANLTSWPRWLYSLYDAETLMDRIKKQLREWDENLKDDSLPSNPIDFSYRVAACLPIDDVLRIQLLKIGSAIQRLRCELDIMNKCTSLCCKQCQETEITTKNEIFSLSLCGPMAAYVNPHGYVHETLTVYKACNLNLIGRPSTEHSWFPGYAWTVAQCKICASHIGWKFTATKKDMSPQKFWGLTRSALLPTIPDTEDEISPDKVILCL
Chain of CRBN/DDB1 (Q16531 whole entry partner): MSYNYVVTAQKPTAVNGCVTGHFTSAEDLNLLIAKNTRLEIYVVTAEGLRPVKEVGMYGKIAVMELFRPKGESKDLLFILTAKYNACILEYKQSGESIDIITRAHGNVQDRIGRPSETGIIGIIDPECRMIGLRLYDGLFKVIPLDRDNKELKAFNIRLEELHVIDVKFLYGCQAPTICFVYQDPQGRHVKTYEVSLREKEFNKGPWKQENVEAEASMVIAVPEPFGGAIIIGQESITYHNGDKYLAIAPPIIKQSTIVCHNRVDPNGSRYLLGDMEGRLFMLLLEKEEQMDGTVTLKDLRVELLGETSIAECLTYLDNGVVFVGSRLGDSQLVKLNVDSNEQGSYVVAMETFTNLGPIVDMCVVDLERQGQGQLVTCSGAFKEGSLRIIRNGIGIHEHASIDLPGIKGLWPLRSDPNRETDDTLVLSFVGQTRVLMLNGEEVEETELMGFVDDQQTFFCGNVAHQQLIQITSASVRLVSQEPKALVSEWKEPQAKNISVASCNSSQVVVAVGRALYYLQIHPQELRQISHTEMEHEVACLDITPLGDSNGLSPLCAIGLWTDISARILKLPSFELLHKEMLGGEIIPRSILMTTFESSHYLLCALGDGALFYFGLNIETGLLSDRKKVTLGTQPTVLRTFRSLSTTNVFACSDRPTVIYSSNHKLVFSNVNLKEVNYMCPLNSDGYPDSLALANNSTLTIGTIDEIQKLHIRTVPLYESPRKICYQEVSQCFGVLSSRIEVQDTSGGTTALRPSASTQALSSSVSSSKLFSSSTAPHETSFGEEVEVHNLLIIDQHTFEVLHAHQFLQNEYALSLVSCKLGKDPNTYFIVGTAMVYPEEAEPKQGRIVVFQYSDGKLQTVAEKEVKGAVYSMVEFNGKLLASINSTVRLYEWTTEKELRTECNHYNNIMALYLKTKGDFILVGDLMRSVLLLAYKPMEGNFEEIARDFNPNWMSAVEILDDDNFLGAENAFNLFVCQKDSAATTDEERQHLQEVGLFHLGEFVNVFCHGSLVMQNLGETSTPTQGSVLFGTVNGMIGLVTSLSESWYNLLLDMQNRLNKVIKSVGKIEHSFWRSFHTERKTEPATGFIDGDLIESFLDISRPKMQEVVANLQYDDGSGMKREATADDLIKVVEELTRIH

Compound | IC50 (CRBN/DDB1) [µM] | DC50 (ER in MCF-7 cells) [µM] | Dmax (ER in MCF-7 cells) [%] | DC50 (ER in T47D cells) [µM] | Dmax (ER in T47D cells; T47D) [%] | Dmax (ER in T47D cells) [%]
C[C@@H]1Cc2c([nH]c3ccccc23)[C@@H](c2cnc(N3CCO[C@H](CN4CCN5c6cc7c(cc6OC[C@@H]5C4)C(=O)N(C4CCC(=O)NC4=O)C7)C3)nc2)N1CC(C)(C)F (stereo partly drawn) [Compound A22, 3-((S)-3-(((R)-4-(5-((1R,3R)-2-(2-fluoro-2-methylpropyl)-3-methyl-2,3,4,9-tetrahydro-1H-pyrido[3,4-b]indol-1-yl)pyrimidin-2-yl)morpholin-2-yl)methyl)-8-oxo-1,2,3,4,4a,5,8,10-octahydro-9H-pyrazino[1′,2′:4,5][1,4]oxazino[2,3-f]isoindol-9-yl)piperidine-2,6-dione] | 0.05 to 0.5 | 0.001 to 0.01 | 25 to 50 | < 0.001 | 25 to 50 | –
C[C@@H]1Cc2c([nH]c3ccccc23)[C@@H](c2ccc(N3CCC(CN4CCN5c6ccc7c(c6OC[C@@H]5C4)CN([C@H]4CCC(=O)NC4=O)C7=O)CC3)nc2)N1CC(F)F [Compound A23, (S)-3-((S)-7-((1-(5-((1R,3R)-2-(2,2-difluoroethyl)-3-methyl-2,3,4,9-tetrahydro-1H-pyrido[3,4-b]indol-1-yl)pyridin-2-yl)piperidin-4-yl)methyl)-1-oxo-1,3,5,5a,6,7,8,9-octahydro-2H-pyrazino[1′,2′:4,5][1,4]oxazino[2,3-e]isoindol-2-yl)piperidine-2,6-dione] | 0.05 to 0.5 | 0.001 to 0.01 | 25 to 50 | 0.001 to 0.01 | 50 to 75 | –
C[C@@H]1Cc2c([nH]c3ccccc23)[C@@H](c2cnc([C@H]3CC[C@H](C(=O)N4CCC(N5Cc6cc7c(cc6C5)C(=O)N(C5CCC(=O)NC5=O)C7)CC4)CC3)nc2)N1CC(F)F (stereo partly drawn) [Compound A25, 3-(6-(1-((1R,4r)-4-(5-((1R,3R)-2-(2,2-difluoroethyl)-3-methyl-2,3,4,9-tetrahydro-1H-pyrido[3,4-b]indol-1-yl)pyrimidin-2-yl)cyclohexane-1-carbonyl)piperidin-4-yl)-1-oxo-3,5,6,7-tetrahydropyrrolo[3,4-f]isoindol-2(1H)-yl)piperidine-2,6-dione] | < 0.05 | 0.01 to 0.1 | < 25 | < 0.001 | 25 to 50 | –
COc1cc(N2CCC3(CCN(C(=O)CN4Cc5cc6c(cc5C4)C(=O)N(C4CCC(=O)NC4=O)C6=O)CC3)CC2)ccc1[C@@H]1c2[nH]c3ccccc3c2C[C@@H](C)N1CC(F)F (stereo partly drawn) [Compound A27, 6-(2-(9-(4-((1R,3R)-2-(2,2-difluoroethyl)-3-methyl-2,3,4,9-tetrahydro-1H-pyrido[3,4-b]indol-1-yl)-3-methoxyphenyl)-3,9-diazaspiro[5.5]undecan-3-yl)-2-oxoethyl)-2-(2,6-dioxopiperidin-3-yl)-6,7-dihydropyrrolo[3,4-f]isoindole-1,3(2H,5H)-dione] | 0.5 to 5 | < 0.001 | 50 to 75 | < 0.001 | > 75 | –
COc1cc(N2CCC(CN3CCN4c5cc(F)c(C(=O)N[C@H]6CCC(=O)NC6=O)cc5OC[C@@H]4C3)CC2)ccc1[C@@H]1c2[nH]c3ccccc3c2C[C@@H](C)N1CC(F)F [Compound A30, (S)-3-((1-(4-((1R,3R)-2-(2,2-difluoroethyl)-3-methyl-2,3,4,9-tetrahydro-1H-pyrido[3,4-b]indol-1-yl)-3-methoxyphenyl)piperidin-4-yl)methyl)-N-((S)-2,6-dioxopiperidin-3-yl)-9-fluoro-1,2,3,4,4a,5-hexahydrobenzo[b]pyrazino[1,2-d][1,4]oxazine-8-carboxamide] | 0.5 to 5 | 0.001 to 0.01 | 25 to 50 | 0.001 to 0.01 | 50 to 75 | –
COc1cc(N2CCC(CN3CCN(c4ccc(NC5CCC(=O)NC5=O)cc4F)CC3)CC2)ccc1[C@@H]1c2[nH]c3ccccc3c2C[C@@H](C)N1CC(F)F (stereo partly drawn) [Compound A31, 3-((4-(4-((1-(4-((1R,3R)-2-(2,2-difluoroethyl)-3-methyl-2,3,4,9-tetrahydro-1H-pyrido[3,4-b]indol-1-yl)-3-methoxyphenyl)piperidin-4-yl)methyl)piperazin-1-yl)-3-fluorophenyl)amino)piperidine-2,6-dione] | < 0.05 | < 0.001 | 25 to 50 | 0.001 to 0.01 | 25 to 50 | –
C[C@@H]1Cc2c([nH]c3ccccc23)[C@@H](c2cnc(N3CCC4(CC3)CC(CN3CCC(c5ccc6c(c5)n(C)c(=O)n6C5CCC(=O)NC5=O)CC3)C4)nc2)N1CC(F)F (stereo partly drawn) [Compound A32, 3-(5-(1-((7-(5-((1R,3R)-2-(2,2-difluoroethyl)-3-methyl-2,3,4,9-tetrahydro-1H-pyrido[3,4-b]indol-1-yl)pyrimidin-2-yl)-7-azaspiro[3.5]nonan-2-yl)methyl)piperidin-4-yl)-3-methyl-2-oxo-2,3-dihydro-1H-benzo[d]imidazol-1-yl)piperidine-2,6-dione] | 0.05 to 0.5 | < 0.001 | 25 to 50 | < 0.001 | 50 to 75 | –
COc1cc(N2CCC(CN3CCC4(CC3)COc3cc5c(cc34)CN(C3CCC(=O)NC3=O)C5=O)CC2)ccc1[C@@H]1c2[nH]c3ccccc3c2C[C@@H](C)N1CC(F)F (stereo partly drawn) [Compound A33, 3-(1′-((1-(4-((1R,3R)-2-(2,2-difluoroethyl)-3-methyl-2,3,4,9-tetrahydro-1H-pyrido[3,4-b]indol-1-yl)-3-methoxyphenyl)piperidin-4-yl)methyl)-7-oxo-5,7-dihydro-2H,6H-spiro[furo[2,3-f]isoindole-3,4′-piperidin]-6-yl) piperidine-2,6-dione] | 0.05 to 0.5 | 0.001 to 0.01 | < 25 | < 0.001 | – | 50 to 75
COc1cc(N2CCC(CN3CCC(c4ccc(N[C@H]5CCC(=O)NC5=O)cc4F)CC3)CC2)ccc1[C@@H]1c2[nH]c3ccccc3c2C[C@@H](C)N1CC(F)F [Compound A34, (S)-3-((4-(1-((1-(4-((1R,3R)-2-(2,2-difluoroethyl)-3-methyl-2,3,4,9-tetrahydro-1H-pyrido[3,4-b]indol-1-yl)-3-methoxyphenyl)piperidin-4-yl)methyl)piperidin-4-yl)-3-fluorophenyl)amino)piperidine-2,6-dione] | < 0.05 | > 0.1 | < 25 | < 0.001 | 25 to 50 | –
COc1cc(N2CCC(CN3CCN(c4ccc(NC5CCC(=O)NC5=O)c(F)c4)CC3)CC2)ccc1[C@@H]1c2[nH]c3ccccc3c2C[C@@H](C)N1CC(F)F (stereo partly drawn) [Compound A41, 3-((4-(4-((1-(4-((1R,3R)-2-(2,2-difluoroethyl)-3-methyl-2,3,4,9-tetrahydro-1H-pyrido[3,4-b]indol-1-yl)-3-methoxyphenyl)piperidin-4-yl)methyl)piperazin-1-yl)-2-fluorophenyl)amino)piperidine-2,6-dione] | 0.5 to 5 | – | – | 0.01 to 0.1 | 25 to 50 | –
COc1cc(N2CCC(CN3CCN(c4ccc(C5CCC(=O)NC5=O)cc4)CC3)CC2)ccc1[C@@H]1c2[nH]c3ccccc3c2C[C@@H](C)N1CC(F)F (stereo partly drawn) [Compound A46, 3-(4-(4-((1-(4-((1R,3R)-2-(2,2-difluoroethyl)-3-methyl-2,3,4,9-tetrahydro-1H-pyrido[3,4-b]indol-1-yl)-3-methoxyphenyl)piperidin-4-yl)methyl)piperazin-1-yl)phenyl)piperidine-2,6-dione] | 0.05 to 0.5 | – | – | < 0.001 | 25 to 50 | –
